Where two headings read alike, the source gives them in different places.
Assays:
[1] = test system: PDE3
Method: Cardiac ventricular myocytes were enzymatically dissociated using standard procedures (Fauconnier, J. et al. Diabetes, 2007). Briefly, mice were euthanized by cervical dislocation, the heart rapidly excised and retrogradely perfused at 37° C. for 6-8 min with a modified tyrode solution (in mM: NaCl113, KCL 4.7, KH2PO4 0.6, Na2HPO4 0.6, MgSO4 1.2, NaHCO3 12, KHCO3 10, HEPES10 Taurine 30, pH=7.4) containing 1 mg.ml-1 of liberase (Roche, France). Isolated myocytes were then transferred to the same solution, free of enzyme, containing 1 mM CaCl2.
Cells were loaded for 30 min at RT with Fluo-4 AM (5 μmol/l, Molecular Probes). Cells were then field-stimulated at 1 Hz with a 1-2 ms current pulse delivered via two platinum electrodes, one on each side of the perfusion chamber. Changes in Fluo-4 fluorescence were recorded using an LSM510 Meta Zeiss confocal microscope equipped with a 63× water immersion objective (NA: 1.2). Measurements were performed in line-scan mode (1.5 ms/line) and scanning was carried out along the long axis of the cell. An excitation wavelength of 488 nm was used, and emitted light was collected through a 505 nm long pass filter. The laser intensity used (3-6% of the maximum) had no noticeable deleterious effect on the fluorescence signal or on cell function over the time-course of the experiment. To enable comparisons between cells, the change in fluorescence (ΔF) was divided by the fluorescence detected immediately before the 0.5 Hz stimulation pulse (F0).

[2] = test system: PDE3; remark: listed apart in the source
Method: Briefly, mice were euthanized by cervical dislocation, the heart rapidly excised and retrogradely perfused at 37° C. for 6-8 min with a modified tyrode solution (in mM: NaCl113, KCL 4.7, KH2PO4 0.6, Na2HPO4 0.6, MgSO4 1.2, NaHCO3 12, KHCO3 10, HEPES10 Taurine 30, pH=7.4) containing 1 mg.ml-1 of liberase (Roche, France). Isolated myocytes were then transferred to the same solution, free of enzyme, containing 1 mM CaCl2.
In addition, we have measured the effect of PDE3 inhibition by cilostamide on the contractility of ventricular myocytes isolated from WT and MRP4 KO mice.

[3] = test system: β-adrenergic system; test: Chronic β-adrenergic stimulation, isoproterenol-induced cardiac hypertrophy; type: in vivo; details: 20 μg/g/day for 2 weeks by miniosmotic pumps, 3 month-old MRP4 KO vs WT mice
Method: Animal models. MRP4 ablated mice (MRP4 KO) were generated and genotyped as described (Leggas, M. et al. Mol Cell Biol 24, 7612-21 (2004). Wild-type and homozygous MRP4-KO mice (8-10 weeks of age) were subjected to left ventricular pressure overload by transverse aortic constriction (TAC), as previously described (Rockman, et al. Proc Natl Acad Sci USA 88, 8277-81 (1991). Five weeks after the procedure, the animals were sacrified and heart and body weights were determined. As a model of β-adenergic overstimulation miniosmotic pumps (Alzet) containing (−)-isoproterenol-bitartrate (Sigma Aldrich) (delivering 20 μg/g/day each) were implanted subcutaneously into 10-12 weeks old animals. Determination of heart weights and analysis of gene expression were carried out after 14 days of continuous infusion. Finally, male MRP4 KO mice and WT littermate were subjected to voluntary exercise. The animals were 10-12 weeks at the start of the study. Individual animals were housed in a cage with free access to a 11.5-cm-diameter running wheel with a 5.0-cm-wide running surface equipped with a digital magnetic counter (model BC 1200, Sigma Sport) that is activated by wheel rotation. Daily exercise values for time and distance run were recorded for each exercised animal throughout the duration of the exercise period. […]

[4] = test system: PDE3; test: Chronotropic effect of PDE3 inhibitor, telemetric ECG (RR interval) in WT and MRP4 KO mice; type: in vivo; details: for heart rate: wild-type mice
Method: Animal models. MRP4 ablated mice (MRP4 KO) were generated and genotyped as described (Leggas, M. et al. Mol Cell Biol 24, 7612-21 (2004). Wild-type and homozygous MRP4-KO mice (8-10 weeks of age) were subjected to left ventricular pressure overload by transverse aortic constriction (TAC), as previously described (Rockman, et al. Proc Natl Acad Sci USA 88, 8277-81 (1991). Five weeks after the procedure, the animals were sacrified and heart and body weights were determined. As a model of β-adenergic overstimulation miniosmotic pumps (Alzet) containing (−)-isoproterenol-bitartrate (Sigma Aldrich) (delivering 20 μg/g/day each) were implanted subcutaneously into 10-12 weeks old animals. Determination of heart weights and analysis of gene expression were carried out after 14 days of continuous infusion. Finally, male MRP4 KO mice and WT littermate were subjected to voluntary exercise. The animals were 10-12 weeks at the start of the study. Individual animals were housed in a cage with free access to a 11.5-cm-diameter running wheel with a 5.0-cm-wide running surface equipped with a digital magnetic counter (model BC 1200, Sigma Sport) that is activated by wheel rotation. Daily exercise values for time and distance run were recorded for each exercised animal throughout the duration of the exercise period.
Telemetry studies. Long-term telemetric ambulatory ECG measurements were performed in wild type and knock out male mice at 3 months of age. Six-lead restrained ECG monitoring of conscious animals (hamsters and mice) were performed with EasyCG® tools system (EMKA technologies, France) formed by the four sensors of ecgTUNNEL® system platform and a translucent animal sizefitting half-tunnel. Each animal was put inside the tunnel, which was then closed, assuring the animal to be properly restrained. The four wires of the platform were connected to a wireless transmitter and amplifier system (emkaPACK®, EMKA technologies). Telemetric ECG tracing were obtained in conscious mice during quiet awake time at daytime. To minimize the effects of stress, animals were allowed to stay in the restraining system for 5 min before starting ECG recordings. […] Six leads of ECG were recorded during 15 to 20 min using specific software (iox®, EMKA technologies): three leads were measured (L1, L2, L3), and three were calculated (aVR, aVL, aVF). Dedicated software (Ecg-auto®, EMKA technologies) was used to measure RR interval, SDNN and HRV index. If needed, raw data were submitted to a 50-Hz notch filter with an automatic setting determined by the software.

Q: Which “Ca2+ transient amplitude (ΔF/F0)” value ([1]; MRP4 KO mice myocytes) does the source give for CN(C(=O)CCCOc1ccc2[nH]c(=O)ccc2c1)C1CCCCC1 [Cilostamide] here?
A: increased

Q: And the “Ca2+ transient half width” value ([1]; MRP4 KO mice myocytes)?
A: decreased

Q: And the “Ca2+ transient rate of decay t” value ([1]; MRP4 KO mice myocytes)?
A: decreased

Q: And the “Ca2+ transient rate of rise (ΔF/F0.ms−1)” value ([1]; MRP4 KO mice myocytes)?
A: decreased

Q: And the “Ca2+ transient” value ([1]; myocytes isolated from WT heart)?
A: no effect

Q: And the “contractility increase, MRP4 KO vs WT” value ([2]; MRP4 KO compared to WT)?
A: significantly more

Q: And the “contractility of ventricular myocytes” value ([2]; MRP4 KO mice myocytes)?
A: increased

Q: What about the “contractility of ventricular myocytes” value ([2]; WT mice myocytes) of the same compound?
A: increased

Q: Which “cardiac hypertrophy (HW/TL ratio)” value [3] does the source give for CC(C)NC[C@H](O)c1ccc(O)c(O)c1 [Isoproterenol, (−)-isoproterenol-bitartrate] here?
A: significantly more important

Q: What does the source list for Cc1[nH]c(=O)c(C#N)cc1-c1ccncc1 [Milrinone]?
A: RR interval ([4]; 0.1 mg/kg, MRP4 KO mice): significant decrease; heart rate ([4]; 0.1 mg/kg): not changing heart rate; decrease in RR interval ([4]; 1 mg/kg, MRP4 KO mice compared to wild-type mice): significantly higher; heart rate ([4]; 1 mg/kg): acceleration of heart rate; chronotropic dose-effect ([4]; MRP4 KO mice compared to wild-type): dramatically enhanced

Reference: patent US8420594B2, “Inhibitors of MRP4 and agents stimulating MRP4 activity for the treatment of cardiac disorders” (INSERM (Institute de la Sante et de la Recherche Medicale), priority 2008, dated 2013)
